US20260062447A1, “COMPOUNDS” (UNIVERSITY OF SOUTHAMPTON, priority 2022, published 2026)
Where a SMILES comes first, the peptide text is derived from it. [ ]: non-standard residue; d: D form. Phe(4-CF3) = N[C@@H](Cc1ccc(C(F)(F)F)cc1)C(=O)O; Phe(4-Br) = N[C@@H](Cc1ccc(Br)cc1)C(=O)O; Nle = CCCC[C@H](N)C(=O)O

How the values were obtained:
HIF-1α PAS-B domain = HIF-1α PAS-B domain (Homo sapiens, UniProt Q16665); test: Microscale thermophoresis (MST) binding to HIF-1α PAS-B domain; conditions: for binding affinity by MST, in words: compared within the derivative series or to the unsubstituted peptide
Method: The impact of these substitutions on the binding affinity was then assessed by MST.
An aliquot of labelled HIF-1α PAS-B was thawed on ice and diluted to 50 nM with HIF MST assay buffer, before being centrifuged at 12,000 rpm for 15 minutes. […] Samples were loaded into NanoTemper® Monolith NT.115 premium treated capillaries and measurements were carried out using a Monolith NT.115 system at 25° C. using 50% MST power and 50% LED power. Data was analysed by NanoTemper® analysis software. Binding curves were fitted using GraphPad Prism 8 software.

[1] = molecular target: T1, HIF-1α PAS-B domain mutant C255A (Homo sapiens, UniProt Q16665, C255A); test: MST binding to cysteine mutant HIF-1α PAS-B C255A; conditions: site-directed mutagenesis
T1 construct: made in house
Method: (§1) One rationalization would be that the peptide binding is disulphide-mediated. Whilst this was thought to be unlikely as all assays were performed in the presence of the reducing agent TCEP, it was decided that the possibility would be further investigated via site-directed mutagenesis (SDM). The three cysteine residues within the HIF-1α PAS-B domain were sequentially mutated to alanine. The affinity of cyclo-CLLFVY for the resultant mutant proteins C255A, C344A and C337A was then assessed by MST.
(§2) An aliquot of labelled HIF-1α PAS-B was thawed on ice and diluted to 50 nM with HIF MST assay buffer, before being centrifuged at 12,000 rpm for 15 minutes. The compound was then serially diluted in DMSO to give 10× stocks. These were then diluted 1:5 in HIF MST assay buffer to give 2× stocks, before finally being mixed 1:1 (v/v) with the labelled protein to give a final concertation of 25 nM protein and a final DMSO content of 10%. Samples were loaded into NanoTemper® Monolith NT.115 premium treated capillaries and measurements were carried out using a Monolith NT.115 system at 25° C. using 50% MST power and 50% LED power. Data was analysed by NanoTemper® analysis software. Binding curves were fitted using GraphPad Prism 8 software.

[2] = test system: HIF-1α PAS-B domain mutant C344A; test: MST binding to cysteine mutant HIF-1α PAS-B C344A; conditions: site-directed mutagenesis
Method: as §1, §2

[3] = molecular target: T2, HIF-1α PAS-B domain mutant C337A (Homo sapiens, UniProt Q16665, C337A); test: MST binding to cysteine mutant HIF-1α PAS-B C337A; conditions: site-directed mutagenesis
T2 construct: made in house
Method: as §1, §2

[4] = molecular target: HIF-1 three-domain protein binding to FAM-HRE; test: Fluorescence polarization assay of HIF-1 binding to FAM-HRE; format: biochemical; conditions: for IC50: FP assay, read-out: IC50 of inhibition of HIF DNA (FAM-HRE) binding
Method: HIF-1 three-domain protein was thawed on ice and diluted to 150 nM in HIF FP buffer. Compounds for analysis were serially diluted in DMSO to give 10× stocks. The compounds (10 μL, 100% DMSO) were then added to the protein (80 μL). The samples were then incubated at room temperature for 30 minutes. FAM-HRE (10 μL, 20 nM) was then added and the samples loaded into a 384 well solid black non-binding microplate (Corning, USA). The fluorescence polarization of each well was then measured using gain and focus settings optimized by the used software set to a signal of 400 mP on a control well.
An FP assay utilizing a FAM labelled HRE was used and CK-NL-F(CF3)IF(Br) assessed.
HIF-1 three-domain protein was thawed on ice and diluted to 150 nM in HIF FP buffer. Compounds for analysis were serially diluted in DMSO to give 10× stocks. The compounds (10 μl, 100% DMSO) were then added to the protein (80 μL). The samples were then incubated at room temperature for 30 minutes. FAM-HRE (10 μL, 20 nM) was then added and the samples loaded into a 384 well solid black non-binding microplate (Corning, USA). The fluorescence polarization of each well was then measured using gain and focus settings optimized by the used software set to a signal of 400 mP on a control well.

[5] = test system: HIF-1a driven transcription in U2OS HRE readout cell line; test: U2OS HRE readout assay (EYFP expression); format: cell-based
[6] = molecular target: T3, His-HIF-1α PAS-B domain with FLAG-HIF-1β PAS-B domain (Homo sapiens, UniProt Q16665); test: ELISA of HIF-1α PAS-B / HIF-1β PAS-B heterodimerization; format: biochemical; conditions: read-out: IC50 of disruption of HIF-1α-HIF-1β PAS-B-PAS-B dimer formation
T3 construct: heterodimerization of His-HIF-1α PAS-B domain with FLAG-HIF-1β PAS-B domain analysed by ELISA
Method: FIG. 9‥Effects of (CONC) CK-n-leu-F(CF3)IF(Br) [SEQ ID NO: 40 Cys lys NL phe(CF3) ile phe(Br)] on the heterodimerization of His-HIF-1α PAS-B domain with FLAG-HIF-1β PAS-B domain analysed by ELISA.
The ability of CK-n-leu-F(CF3)IF(Br) to disrupt the HIF-1α-HIF-1β PAS-B-PAS-B PPI was then assessed via an ELISA assay.
To each well of a clear Pierce nickel coated 96-well plate (Thermo Scientific), purified Hiss-HIF-1α PAS-B protein in HIP buffer was added (25 μL, 0.1 μM), the plate was then incubated for 1 hr at RT with rocking. The wells were then washed 2× with HIF buffer (150 μL) and 1× with PBS Tween (0.05% Tween 20, 150 μL). 2% milk in PBS Tween (150 μL) was then added to each well and incubated for 1 hr at RT with rocking as a blocking step. The wells were then washed 2×PBS Tween (150 μL) and 1× with HIF buffer (150 μL). For HIF-B dimerisation a serial dilution of HIF-1β PAS-B ranging from 250 μM to 11 nM in HIF buffer (100 μL) was then added. […] The plate was then incubated at RT for 1 hr with rocking. The wells were then washed 2× with HIF buffer (150 μL) and 1× with PBS Tween (150 μL), A 1:1000 dilution of mouse anti-flag antibody in 2% milk PBS Tween (50 μL) was then added to each well and the plate incubated for a further hour at RT with rocking. […] H2SO4(aq) (2 M, 100 μL) was then added to each well and the absorbance at 450 nm determined on a BMG Clariostar plate reader.

[7] = test system: HIF-1a driven transcription in Panc HRE readout cell line; test: Panc HRE readout cell line (EYFP expression); format: cell-based
[8] = Cytotox-Glo toxicity assay; format: cell-based; conditions: doses 50 uM
HeLa cells = test: Cell internalization of the fluorescent peptide, PMT detection at 405 nm; format: cell-based
Text: (§3) FIG. 11—A) Structure of cyclic peptide that incorporates a coumaryl motif at the phenylalanine position CLL-Cou-VY [SEQ ID NO: 39 Cys leu leu cou val tyr]. B) MST analysis of CLL-Cou-VY. C) The peptide was seen to be internalized in HeLa cells upon visualization with PMT detection at 405 nm. […] E) HIF-1α immunofluorescence under control conditions showing that without treatment HIF-1a localizes to the nucleus.
We therefore made a peptide with a coumaryl motif incorporated at the phenylalanine position the compound, CLL-Cou-VY, shown in FIG. 11 was seen to be internalized in HeLa cells upon visualization with PMT detection at 405 nm.

[9] = test system: HIF-1α nuclear localization; test: HIF-1α immunofluorescence (nuclear localization); format: cell-based
Text: as §3

Chain of HIF-1α PAS-B domain (Q16665 238-349 limits assumed): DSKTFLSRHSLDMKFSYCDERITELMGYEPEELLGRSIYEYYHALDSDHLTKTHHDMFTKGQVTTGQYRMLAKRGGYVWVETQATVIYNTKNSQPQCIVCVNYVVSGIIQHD
T2 sequence (Q16665 238-349 C337A limits assumed): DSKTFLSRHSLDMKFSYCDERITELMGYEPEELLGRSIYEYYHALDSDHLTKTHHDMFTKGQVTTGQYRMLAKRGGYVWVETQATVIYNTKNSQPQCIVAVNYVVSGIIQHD
T3 sequence (Q16665 238-349 limits assumed): as the sequence (Q16665 238-349 limits assumed) above
T1 sequence (Q16665 238-349 C255A limits assumed): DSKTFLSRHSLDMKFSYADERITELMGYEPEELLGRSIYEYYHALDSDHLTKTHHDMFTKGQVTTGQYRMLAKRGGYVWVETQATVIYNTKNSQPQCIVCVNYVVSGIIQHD

In the case of CC(C)C[C@@H]1NC(=O)[C@H](CS)NC(=O)[C@H](Cc2ccc(O)cc2)NC(=O)[C@H](C(C)C)NC(=O)[C@H](Cc2ccc3ccccc3c2)NC(=O)[C@H](CC(C)C)NC1=O [Nal, Cys leu leu Nal val tyr], the “fold improvement in affinity compared to the parent peptide CLLFVY” value (HIF-1α PAS-B domain; MST Kd relative to CLLFVY) is reported as 6 fold.
For CC(C)C[C@@H]1NC(=O)[C@H](CS)NC(=O)[C@H](Cc2ccc(O)cc2)NC(=O)[C@H](C(C)C)NC(=O)[C@H](Cc2ccccc2)NC(=O)[C@H](CC(C)C)NC1=O [CLLFVY, Cys leu leu phe val tyr], the “binding activity for mutant protein C255A” value [1] was “binding activity is retained”, the “binding activity for mutant protein C344A” value [2] was “binding activity is retained” and the “binding activity for mutant protein C337A” value [3] was “binding activity is retained”. For the same compound, the IC50 [4] was 76.5 ± 8 µM.
In the case of CCCC[C@@H]1NC(=O)[C@H](CC(C)C)NC(=O)[C@H](CS)NC(=O)[C@H](Cc2ccc(Br)cc2)NC(=O)[C@H]([C@@H](C)CC)NC(=O)[C@H](Cc2ccc(O)cc2)NC1=O [CL-n-leu-F(CF3)IF(Br), Cys leu n-leu phe(CF3) ile phe(4-Br)] (cyclo(CL[Nle]YI[Phe(4-Br)])), the “expression of EYFP” value [5] is reported as “inhibited the expression of EYFP”.
In the case of CCCC[C@@H]1NC(=O)[C@H](CCCCN)NC(=O)[C@H](CS)NC(=O)[C@H](Cc2ccc(Br)cc2)NC(=O)[C@H]([C@@H](C)CC)NC(=O)[C@H](Cc2ccc(C(F)(F)F)cc2)NC1=O [CK-n-leu-F(CF3)IF(Br), Cys lys n-leu phe(CF3) ile phe(4-Br)] (cyclo(CK[Nle][Phe(4-CF3)]I[Phe(4-Br)])), the Kd (HIF-1α PAS-B domain; MST, HIF-1α PAS-B domain) is reported as 1.66 ± 0.3 µM, the IC50 [6] is reported as 27.7 ± 14 µM and the “compatibility with FP assay / direct binding to FAM-HRE” value ([4]; peptide itself with FAM labelled HRE) is reported as “bind to the FAM-HRE directly”. For the same compound, the “expression of EYFP” value [7] was “inhibited the expression of EYFP” and the toxicity [8] was “not toxic”.
In the case of CC(C)C[C@@H]1NC(=O)[C@H](CC(C)C)NC(=O)[C@@H](CS)NC(=O)[C@H](Cc2ccc(O)cc2)NC(=O)[C@H](C(C)C)NC(=O)[C@H](Cc2ccccc2)NC1=O [D-cysteine, d-cys leu leu phe val tyr], the “binding affinity by MST, in words” value (HIF-1α PAS-B domain) is reported as “comparable affinities”.
For CC(C)C[C@@H]1NC(=O)[C@H](CS)NC(=O)[C@H](Cc2ccc(Br)cc2)NC(=O)[C@H](C(C)C)NC(=O)[C@H](Cc2ccc(C(F)(F)F)cc2)NC(=O)[C@H](CC(C)C)NC1=O [CLLF(CF3)IF(Br), Cys leu leu phe(CF3) ile phe(4-Br)], the “binding affinity by MST, in words” value (HIF-1α PAS-B domain) was “best affinity” and the IC50 [4] was 11.8 ± 1.1 µM.
With CC(C)C[C@@H]1NC(=O)[C@H](CS)NC(=O)[C@H](Cc2ccc(O)cc2)NC(=O)[C@H](C(C)C)NC(=O)[C@H](CCc2cc(=O)oc3cc(O)ccc23)NC(=O)[C@H](CC(C)C)NC1=O [CLL-Cou-VY, Cys Leu Leu Cou Val Tyr] the internalization in cells (HeLa cells) was “internalized” and the “effect on HIF-1α nuclear localization” value [9] was “preventing HIF-1α nuclear localization”.
In the case of NC(CCS)C(=O)O (centres unmarked) [homocysteine, h-cys leu leu phe val tyr], the “binding affinity by MST, in words” value (HIF-1α PAS-B domain) is reported as “comparable affinities”.
